Common to all, as to format: in vivo
Assay [1] relates to transgenic SOD1 G93A mice. The assay is described as follows: Survival time of SOD1 G93A mice (Kaplan-Meier). Particulars: in words, oral 185 mg NR and/or 30 mg PT or R per Kg per day, FIG. 1-2. An excerpt:
(§1) 1. B6.Cg-Tg(SOD1*G93A)1Gur/J (https://www.jax.org/strain/004435)
(§2) Mice hemizygous for this SOD1-G93A (also called G93A-SOD1) transgene were viable and fertile, with transgenic expression of a G93A mutant form of human SOD1. This founder line (often referred to as G1H) was reported to have high transgene copy number. […] Motor neuron degeneration has been associated with function and/or degeneration of astrocytes, the major glial cell type of the nervous system. […] Female hemizygotes were poor breeders, and rarely produced more than one litter before the onset of disease. […] The pattern of gene expression in SOD1G93A activated microglia represented a unique ALS-specific signature. These SOD1-G93A (also called G93A-SOD1) transgenic mice were useful in studying neuromuscular disorders, including Amyotrophic Lateral Sclerosis.
(§3) Nicotinamide riboside, pterostilbene, and resveratrol were administered orally: 185 mg of nicotinamide riboside and/or 30 mg of pterostilbene or resveratrol per Kg per day were administered to the mice.

Assay [2] has as its system transgenic SOD1 G93A mice. The assay is described as follows: Motor behavior and performance tests in SOD1 mice (FIG. 3-9). The conditions noted are these: in words; for motor functions of SOD1 mice: FIG. 3-9, benefits only in the last weeks of the experiment.
From the text: as §1, §2, §3
This score was based on the scale of Weydt et al. (Neuroreport 14: 1051-1054, 2003). […] When the animals reached a score of “4”, the access to food and water was facilitated by placing food pellets on the cage floor to all transgenic mice. Reaching a score of “5”, the animals were euthanized for ethical reasons. […] Changes over time in the different groups were monitored weekly from week 8 (P50) to week 20 (P140).
This score was based on the SHIRPA tail scale, procedure developed by Rogers et al. (Mamm. Genome 8: 711-713, 1997) in the MRC, United Kingdom. […] Changes over time in the different groups were monitored weekly.
Functions of the test included evaluating balance, grip strength and motor coordination of the subjects; especially in testing the effect of experimental drugs. For this test (Rota Rod, Harvard Apparatus, Holliston, Mass.), each animal was given three trials and the maximum period (seconds) that it could remain on a rotating axle (3.5 cm diameter; speed of rotation: 15 rpm) without falling was measured. Each mouse was given up to three attempts for an arbitrary limit of 1200 seconds and the longest period was recorded. Changes over time in the different groups were monitored weekly.
Motor function and deficit in rodent models of CNS disorders were evaluated. […] Each mouse was given up to three attempts for a maximum of 180 seconds and the longest period was recorded. Changes over time in the different groups were monitored weekly.
For this locomotor rating test, a flat rolling band (Treadmill, Harvard Apparatus) was used and set at an angle of 5°. […] Each mouse was given two trials and the maximum distance run and the number of electrical stimuli received during the test (not exceeding 3 seconds) were recorded. […]

The test system of assay [3] is transgenic SOD1 G93A mice. The assay is described as follows: Electrophysiological measurements (CMAP, gastrocnemius muscle after sciatic nerve stimulation) in SOD1 mice. The conditions noted are these: in words, FIG. 9. As for the experimental part:
Nicotinamide riboside, pterostilbene, and resveratrol were administered orally: 185 mg of nicotinamide riboside and/or 30 mg of pterostilbene or resveratrol per Kg per day were administered to the mice. Changes over time in evoked Compound Motor Action Potential (CMAP) in the gastrocnemius muscle after stimulation of the sciatic nerve were monitored at P50 (week 8) and […] (week 18). Recordings were made on a 2-channel electromyography system (Keypoint portable; Medtronic, Skovlunde, Denmark), with the high-frequency filter set at 5 kHz and the low-frequency filter set at 2 Hz. Electric stimulation produces artifacts; to reduce them, rectangular monophase electric pulses with a pulse width of 0.04 ms were used. For CMAP measurements the stimulation electrode was placed on the nerve at distance of 1 cm from the recording electrode placed on the gastrocnemius muscle through percutaneous puncture in the distal third of the paw, ipsilaterally to the surgical procedure, with a coaxial needle. The data of CMAP amplitude were expressed in millivolts, the data of latency were expressed in milliseconds and the data of nerve conduction velocity were expressed in meters per second (m/s). The number of animals tested per time point and group was of n=4.

For `Oc1ccc(C=Cc2cc(O)cc(O)c2)cc1` [Resveratrol, resveratrol, reference compound], the “survival of SOD1 mice” value in assay [1] is “showed no benefit”. The “motor functions of SOD1 mice” value in assay [2] is recorded as “showed no benefit”. In assay [2] (Student's t-test), the “statistical comparison with the same group without R (SOD1 vs SOD1+R; SOD1+NR vs SOD1+NR+R)” value is “did not show significant differences”.
Take `NC(=O)c1ccc[n+]([C@@H]2O[C@H](CO)[C@@H](O)[C@H]2O)c1` [NR, nicotinamide riboside]: the “motor functions of SOD1 mice” value in assay [2] is reported as “improved motor functions”. Moreover, the motor action potential entry in assay [3] was “preserving motor action potential”.
`COc1cc(/C=C/c2ccc(O)cc2)cc(OC)c1` [PT, pterostilbene]: in assay [1], the “survival of SOD1 mice” value is given as “did not improve survival”. Besides, the “motor functions of SOD1 mice” value in assay [2] is “but not PT alone improved motor functions”.

Values taken from patent US11730751B2, “Treating and preventing motor neuron diseases using nicotinamide riboside” (Elysium Health, Inc., priority 2017, dated 2023).
